In patent publication US20090131483A1, “2-PYRIDINE DERIVATIVES AS INHIBITORS OF NEUTROPHILE ELASTASE” (priority 2005, published 2009) one finds IC50 data, which are given here for five compounds.

The target of the test is T1, Human Neutrophil Elastase (HNE) (Homo sapiens, UniProt P08246).
T1 construct: Human Neutrophil Elastase (HNE) purified from serum; purchased Calbiochem 324681; host or cells: purified from serum (so in the source)
T1 sequence (P08246 30-267): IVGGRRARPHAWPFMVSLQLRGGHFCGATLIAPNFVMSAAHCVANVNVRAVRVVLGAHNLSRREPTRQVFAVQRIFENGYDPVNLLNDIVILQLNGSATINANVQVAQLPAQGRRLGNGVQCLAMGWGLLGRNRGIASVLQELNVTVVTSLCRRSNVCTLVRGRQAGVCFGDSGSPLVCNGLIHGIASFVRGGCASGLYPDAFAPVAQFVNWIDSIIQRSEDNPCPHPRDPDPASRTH
The test is described as follows: Human Neutrophil Elastase Quenched-FRET Assay. It is filed as biochemical. Particulars: HNE purified from serum 1.7 nM, substrate MeOSuc-AAPV-AMC 100 μM, pH 7.5, 15 min pre-incubation, 30 min incubation at room temperature; read-out: Inhibition of Human Neutrophil Elastase IC50. As to the method:
Human Neutrophil Elastase Quenched-FRET Assay
The assay uses Human Neutrophil Elastase (HNE) purified from serum (Calbiochem art. 324681; Ref. Baugh, R. J. et al., 1976, Biochemistry. 15, 836-841). H was stored in 50 mM sodium acetate (NaOAc), 200 mM sodium chloride (NaCl), pH 5.5 with added 30% glycerol at −20° C. The protease substrate used was Elastase Substrate V Fluorogenic, MeOSuc-AAPV-AMC (Calbiochem art. 324740; Ref. Castillo, M. J. et al., 1979, Anal. Biochem. 99, 53-64). The substrate was stored in dimethyl sulphoxide (DMSO) at −20° C. The assay additions were as follows: Test compounds and controls were added to black 96-well flat-bottom plates (Greiner 655076), 1 μL in 100% DMSO, followed by 30 μL HNE in assay buffer with 0.01% Triton (trade mark) X-100 detergent. The assay buffer constitution was: 100 mM Tris(hydroxymethyl)aminomethane (TRIS) (pH 7.5) and 500 mM NaCl. The enzyme and the compounds were incubated at room temperature for 15 minutes. Then 30 μl substrate in assay buffer was added. The assay was incubated for 30 minutes at room temperature. The concentrations of HNE enzyme and substrate during the incubation were 1.7 nM and 100 μM, respectively. The assay was then stopped by adding 60 μl stop solution (140 mM acetic acid, 200 mM sodium monochloroacetate, 60 mM sodium acetate, pH 4.3). Fluorescence was measured on a Wallac 1420 Victor 2 instrument at settings: Excitation 380 nm, Emission 460 nm. IC50 values were determined using Xlfit curve fitting using model 205.
As for `Cc1c(C#CCO)cc(C(=O)NCc2ccc(S(C)(=O)=O)cc2)c(=O)n1-c1cccc(C(F)(F)F)c1` [Example 20, 5-(3-Hydroxyprop-1-yn-1-yl)-6-methyl-N-[4-(methylsulfonyl)benzyl]-2-oxo-1-[3-(trifluoromethyl)phenyl]-1,2-dihydropyridine-3-carboxamide], the concentration for half-maximal inhibition (IC50) (usually the concentration that inhibits the measured activity by half) amounted to 23 nM.
As to `Cc1c(-c2ccnn2C)cc(C(=O)NCc2cc(CO)no2)c(=O)n1-c1cccc(C(F)(F)F)c1` [Example 4, N-{[3-(Hydroxymethyl)isoxazol-5-yl]methyl}-6-methyl-5-(1-methyl-1H-pyrazol-5-yl)-2-oxo-1-[3-(trifluoromethyl)phenyl]1,2-dihydropyridine-3-carboxamide], the concentration for half-maximal inhibition (IC50) worked out at 31 nM.
For the compound `Cc1c(CS(C)(=O)=O)cc(C(=O)NCc2ccc(S(=O)(=O)C3CC3)cc2)c(=O)n1-c1cccc(C(F)(F)F)c1` [Example 23, N-[4-(Cyclopropylsulfonyl)benzyl]-6-methyl-5-[(methylsulfonyl)methyl]-2-oxo-1-[3-(trifluoromethyl)phenyl]-1,2-dihydropyridine-3-carboxamide], the IC50 was found to be 61 nM.
Then `CCc1cc(C(=O)NCc2cc(CO)no2)c(=O)n(-c2cccc(C(F)(F)F)c2)c1C` [Example 6, 5-Ethyl-N-{[3-(hydroxymethyl)isoxazol-5-yl]methyl}-6-methyl-2-oxo-1-[3-(trifluoromethyl)phenyl]-1,2-dihydropyridine-3-carboxamide], with 45 nM; and `Cc1c(C2CC2)cc(C(=O)NCc2cc(CO)no2)c(=O)n1-c1cccc(C(F)(F)F)c1` [Example 7, 5-Cyclopropyl-N-{[3-(hydroxymethyl)isoxazol-5-yl]methyl}-6-methyl-2-oxo-1-[3-(trifluoromethyl)phenyl]-1,2-dihydropyridine-3-carboxamide], with 48 nM.
